SMILES strings stand for the structures.

This is an account of results in patent US7727998B2, “Melanin-concentrating hormone receptor antagonists containing piperidine derivatives as the active ingredient” (Banyu Pharmaceutical Co., Ltd., priority 2003, dated 2010).

T1 sequence (Q99705 whole entry): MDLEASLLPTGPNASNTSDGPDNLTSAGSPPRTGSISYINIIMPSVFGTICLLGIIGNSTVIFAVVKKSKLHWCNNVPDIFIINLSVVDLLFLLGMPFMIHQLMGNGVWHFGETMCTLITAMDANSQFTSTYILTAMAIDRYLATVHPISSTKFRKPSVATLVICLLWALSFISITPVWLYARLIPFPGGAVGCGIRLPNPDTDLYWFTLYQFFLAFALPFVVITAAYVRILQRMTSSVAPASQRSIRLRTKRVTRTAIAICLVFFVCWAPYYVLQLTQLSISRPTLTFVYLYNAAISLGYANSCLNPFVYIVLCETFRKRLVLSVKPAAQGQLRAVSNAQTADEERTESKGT

One assay concerns the target T1, human MCH-1R (Homo sapiens, UniProt Q99705).
T1 construct: expressed in transfected cells; host or cells: CHO-K1 (American Type Culture Collection), membrane samples
The assay can be described thus: MCH binding inhibition test.
Details: not given
The source says:
Pharmacological Test Example 1
(MCH Binding Inhibition Test)
A human MCH-1R encoding cDNA sequence [FEBS Letters, Vol. 398, p. 253 (1996); Biochimica et Biophisica Acta, Vol. 1401, p. 216 (1998)] was cloned to plasmid vector pEF/mic/cyto (Invitrogen Corporation). The obtained expression vector was transfected to a host cell CHO-K1 (American Type Culture Collection) using lipofectamine plus reagent (Life Technology Inc.) to provide MCH-1R expression cells.
Membrane samples prepared from the MCH-1R expression cells were incubated with each test compound and 50 pM of [^125I]MCH (NEN Co.), in an assay buffer (50 mM Tris buffer comprising 10 mM magnesium chloride, 2 mM ethylenediamine tetraacetate, 0.01% bacitracin and 0.2% bovine serum albumin; pH 7.4) at 25° C. for an hour, followed by filtration through Glass Filter GF/C (Wattman Co.). After washing the glass filter with 50 mM Tris buffer (pH7.4) comprising 10 mM magnesium chloride, 2 mM ethylenediamine tetraacetate and 0.04% Tween-20, radiative activity on the glass filter was measured. Non-specific binding was measured in the presence of 1 μM human MCH and 50% inhibition concentration (IC50 value) of each test compound to specific [^125] MCH binding was determined.
As for `CN(CCCN1CCC2(CC1)OCc1cc(F)ccc12)C(=O)C(c1ccc(F)c(F)c1)N1CCCC1=O` (stereo not drawn) [Example 33, 2-(3,4-Difluorophenyl)-N-methyl-2-(2-oxo-1-pyrrolidinyl-N-[3-spiro[5-fluoroisobenzofuran-1(3H), 4′-piperidin]-1-yl)-propyl]acetamide], the IC50 came to 1.4 nM.

Consider `Cc1nccn1C(C(=O)N(C)CCCN1CCC2(CC1)OCc1ccc(F)cc12)c1ccc(F)c(F)c1` (stereo not drawn) [Example 43, 2-(3,4-Difluorophenyl)-N-methyl-2-(2-methyl-1H-imidazol-1-yl)-N-[3-(spiro[6-fluoroisobenzofuran-1(3H), 4′-piperidin]-1-yl)-propyl]acetamide], for which the IC50 worked out at 0.2 nM.

Turning to `CN(CCCN1CCC2(CC1)OCc1cc(F)ncc12)C(=O)C(c1ccc(F)nc1)c1ccc(F)nc1` [Example 48, 2,2-Bis(6-fluoro-3-pyridinyl)-N-methyl-N-[3-(spiro[5-fluoro-6-azaisobenzofuran-1(3H), 4′-piperidin]-1-yl)propyl]-acetamide], the IC50 was 6.5 nM.

`O=C(NCCCN1CCC2(CC1)OCc1cc(F)ccc12)C(c1ccc(F)c(F)c1)N1CCCC1=O` (stereo not drawn) [Example 6, 2-(3,4-Difluorophenyl)-2-(2-oxo-1-pyrrolidinyl)-N-[3-(spiro[5-fluoroisobenzofuran-1(3H), 4′-piperidin]-1-yl)propyl]-acetamide]: the IC50 was 5 nM.

`CN(CCCN1CCC2(CC1)OCc1ccccc12)C(=O)C(c1ccc(F)c(F)c1)n1ncnn1` (stereo not drawn) [Example 28, 2-(3,4-Difluorophenyl)-N-methyl-2-(2H-1,2,3,4-tetrazol-2-yl)-N-[3-(spiro[isobenzofuran-1(3H), 4′-piperidin]-1-yl)propyl]acetamide]: the IC50 turned out to be 1.9 nM.

Staying with this assay, now noted: inhibition of specific [125I]MCH (50 pM) binding; membranes of MCH-1R expressing CHO-K1 cells; 25° C., one hour, pH 7.4; read-out: IC50.
Turning to `CN(CCCN1CCC2(CC1)OCc1ccccc12)C(=O)C(c1ccc(Cl)cc1)n1cccc1` (stereo not drawn) [Example 12, 2-(4-Chlorophenyl)-N-methyl-2-(1H-pyrrol-1-yl)-N-[3-(spiro-[isobenzofuran-1(3H), 4′-piperidin]-1-yl)propyl]acetamide], the IC50 amounted to 1 nM.

On to `CN(CCCN1CCC2(CC1)OCc1ccccc12)C(=O)C(c1ccc(F)c(F)c1)n1ccnn1` (stereo not drawn) [Example 18, 2-(3,4-Difluorophenyl)-N-methyl-2-(1H-1,2,3-triazol-1-yl)-N-[3-(spiro[isobenzofuran-1(3H), 4′-piperidin]-1-yl)propyl]acetamide], for which the 50% inhibitory concentration (IC50) came to 1.9 nM.

In the case of `CCN(CCCN1CCC2(CC1)OCc1ccccc12)C(=O)C(c1ccc(F)c(F)c1)N1CCCC1=O` (stereo not drawn) [Example 67, 2-(3,4-Difluorophenyl)-N-ethyl-2-(2-oxo-1-pyrrolidinyl)-N-[3-(spiro[isobenzofuran-1(3H), 4′-piperidin]-1-yl)propyl]acetamide], the IC50 was determined as 1 nM.

In the case of `CCC(=O)Nc1cccc(C2CCN(CCCN(C)C(=O)C(C)(C)c3ccc(F)c(F)c3)CC2)c1` [Example 60, 2-(3,4-Difluorophenyl)-2,2-dimethyl-N-methyl-N-[3-(4-(3-(propionylamino)phenyl)-1-piperidinyl)propyl]acetamide], the IC50 worked out at 2.5 nM.

What is called IC50 is the concentration that inhibits the measured activity by half.
